The text below walks through data of US20210395210A1, “INHIBITION OF BACTERIAL CHAPERONIN SYSTEMS” (THE TRUSTEES OF INDIANA UNIVERSITY, priority 2018, published 2021).

Like-named read-outs stand apart in the source and are kept apart here.

Test [1] deals with Enterococcus faecium (ATCC 19434). Briefly: Bacterial proliferation assay, E. faecium. It counts as cell-based. The text has this: (§1) Bacterial Strains: Enterococcus faecium—(Orla-Jensen) Schleifer and Kilpper-Balz strain NCTC 7171 (ATCC 19434); Drug sensitive Staphylococcus aureus—Rosenbranch strain Seattle 1945 (ATCC 25923); Methicillin resistant S. aureus (MRSA)—Rosenbach strain HPV107 (ATCC BAA-44); Klebsiella Pneumonia—(Schroeter) Trevisan strain NCTC 9633 (ATCC 13883); Acinetobacter baumannii—Bouvet and Grimont strain 2208 (ATCC 19606); Pseudomonas aeruginosa—(Schroeter) Migula strain NCTC 10332 (ATCC 10145); Enterobacter cloacae—E. cloacae, subsp. cloacae (Jordan) Hormaeche and Edwards strain CDC 442-68 (ATCC 13047).
(§2) Growth Media: All bacteria were grown in Brain Heart Infusion (BHI) broth/agar (Becton, Dickinson and Company). All liquid cultures were grown in BHI media supplemented with 25 mg/L Ca^2+ and 12.5 mg/L Mg^2+ to mimic free physiological concentrations of these cations. A 10 mg/mL Ca^2+ stock solution was prepared by dissolving 3.68 g of CaCl2.2H2O in 100 mL of deionized water, and a 10 mg/mL Mg^2+ stock solution was prepared by dissolving 8.36 g of MgCl2.6H2O in 100 mL deionized water. Both stock solutions were filter-sterilized using 0.2 μm pore size cellulose-acetate filters. 2.5 mL of the sterile 10 mg/mL Ca^2+ stock and 1.25 mL of the sterile 10 mg/mL Mg^2+ stock solutions were added per 1 L of autoclaved BHI medium to obtain 25 mg/L Ca^2+ and 12.5 mg/L Mg^2+ ions, respectively.
(§3) General Assay Protocol: Stock bacterial cultures were streaked onto BHI agar plates and grown overnight at 37° C. Fresh aliquots of broth were inoculated with single bacterial colonies and the cultures were grown overnight at 37° C. with shaking (240 rpm) in cation adjusted BHI media. The following morning, the overnight cultures were sub-cultured (1:5 dilution) into fresh aliquots of cation adjusted BHI media and grown at 37° C. for 1-2 hours with shaking. After 2 h, cultures were diluted into fresh media to achieve final OD600 readings of 0.017. Aliquots of these diluted cultures (30 μL) were added to clear, flat-bottom, 384-well polystyrene plates that were stamped with 0.5 μL of test compounds in 20 μL media. […] Plates were sealed with “Breathe Easy” oxygen permeable membranes (Diversified Biotech) and left to incubate at 37° C. without shaking (stagnant assay). OD600 nm readings were taken at either 6-8 h (S. aureus, MRSA, K. pneumonia, E. cloacae, and P. aeruginosa) or 24 h (E. faecium and A. baumannii). A second set of baseline control plates were prepared analogously, but without any bacteria added, to correct for possible compound absorbance and/or precipitation. Plates were then read at 600 nm using a Molecular Devices SpectraMax Plus384 microplate reader. […] Results presented represent the averages of EC50 values obtained from at quadriplicate (duplicate of duplicate) replicates.

In test [2] the test system is Pseudomonas aeruginosa (ATCC 10145). Description: Bacterial proliferation assay, P. aeruginosa. It counts as cell-based.
Text: as §1, §2, §3

For test [3], the system named is Klebsiella Pneumonia (ATCC 13883). Briefly: Bacterial proliferation assay, K. pneumoniae. It counts as cell-based.
Text: as §1, §2, §3

The test system of test [4] is Enterobacter cloacae (ATCC 13047). Briefly: Bacterial proliferation assay, E. cloacae. It counts as cell-based.
Text: as §1, §2, §3

The subject of test [5] is Drug sensitive Staphylococcus aureus (ATCC 25923). Description: Bacterial proliferation assay, drug sensitive S. aureus. It counts as cell-based.
Text: as §1, §2, §3

Test [6] deals with Methicillin resistant S. aureus (MRSA) (ATCC BAA-44). Description: Bacterial proliferation assay, MRSA. It counts as cell-based, Staphylococcus aureus. As to conditions: Staphylococcus aureus.
Text: as §1, §2, §3

Setting [7] is: ATCC19434, OD600 at 24 h, read-out: Bacterial Proliferation EC50 E. faecium.
Where [8] appears, read: ATCC19434, log of EC50 (μM scale), with standard deviation, read-out: log(EC50) Bacterial Proliferation Assay C. faecium (converted).
The mark [9] stands for this setting: ATCC10145, OD600 at 6-8 h, read-out: Bacterial Proliferation EC50 P. aeruginosa.
Where [10] appears, read: ATCC10145, log of EC50 (μM scale), with standard deviation, read-out: log(EC50) Bacterial Proliferation Assay P. aeruginosa (converted).
[11] abbreviates: ATCC13883, OD600 at 6-8 h, read-out: Bacterial Proliferation EC50 K. pneumoniae.
Setting [12] is: ATCC13883, log of EC50 (μM scale), with standard deviation, read-out: log(EC50) Bacterial Proliferation Assay K. pneumoniae (converted).
Setting [13] is: ATCC13047, OD600 at 6-8 h, read-out: Bacterial Proliferation EC50 E. cloacae.
The mark [14] stands for this setting: ATCC13047, log of EC50 (μM scale), with standard deviation, read-out: log(EC50) Bacterial Proliferation Assay E. cloacae (converted).
Setting [15] is: ATCC25923, OD600 at 6-8 h, read-out: Bacterial Proliferation EC50 S. aureus Sensitive.
Setting [16] is: ATCC25923, log of EC50 (μM scale), with standard deviation, read-out: log(EC50) Bacterial Proliferation Assay S. aureus Sensitive (converted).
[17] abbreviates: MRSA, log of EC50 (μM scale), with standard deviation, read-out: log(EC50) Bacterial Proliferation Assay S. aureus Resistant (converted).
[18] abbreviates: ATCC19434, 24 h, read-out: Bacterial Proliferation EC50 E. faecium.
The mark [19] stands for this setting: ATCC19434, read-out: log(EC50) Bacterial Proliferation Assay C. faecium (converted).
Where [20] appears, read: ATCC10145, read-out: Bacterial Proliferation EC50 P. aeruginosa.
Where [21] appears, read: ATCC10145, read-out: log(EC50) Bacterial Proliferation Assay P. aeruginosa (converted).
[22] abbreviates: ATCC13883, read-out: Bacterial Proliferation EC50 K. pneumoniae.
The mark [23] stands for this setting: ATCC13883, read-out: log(EC50) Bacterial Proliferation Assay K. pneumoniae (converted).
[24] abbreviates: ATCC13047, read-out: Bacterial Proliferation EC50 E. cloacae.
The mark [25] stands for this setting: ATCC13047, read-out: log(EC50) Bacterial Proliferation Assay E. cloacae (converted).
Setting [26] is: ATCC25923, read-out: Bacterial Proliferation EC50 S. aureus Sensitive.
The mark [27] stands for this setting: ATCC25923, read-out: S. aureus Proliferation & Biofilm Assay EC50 Planktonic Growth.
[28] abbreviates: ATCC25923, read-out: log(EC50) Bacterial Proliferation Assay S. aureus Sensitive (converted).
The mark [29] stands for this setting: read-out: Bacterial Proliferation EC50 S. aureus Resistant.
Where [30] appears, read: read-out: log(EC50) Bacterial Proliferation Assay S. aureus Resistant (converted).

As to `COc1c(Br)cc(Br)cc1C(=O)Nc1cccc(Cl)c1` [Compound 37, 3,5-Dibromo-N-(3-chlorophenyl)-2-methoxybenzamide], the EC50 in test [1] (setting [7]), in test [1] (setting [8]), in test [2] (setting [9]), in test [2] (setting [10]), in test [3] (setting [11]) and in test [3] (setting [12]) was > 100 µM each time. In addition, the EC50 was > 100 µM in test [4] (setting [13]); > 100 µM in test [4] (setting [14]); 46 µM in test [5] (setting [15]); 45.7 µM in test [5] (setting [16]); > 100 µM in test [6] (MRSA, OD600 at 6-8 h, read-out: Bacterial Proliferation EC50 S. aureus Resistant); > 100 µM in test [6] (setting [17]).
On to `O=C(Nc1ccccc1)c1cc(Br)cc(Br)c1` [Compound 26, 3,5-Dibromo-N-phenylbenzamide], for which the EC50 in test [1] (setting [7]), in test [1] (setting [8]), in test [2] (setting [9]), in test [2] (setting [10]), in test [3] (setting [11]) and in test [3] (setting [12]) was > 100 µM throughout. Further, the EC50 in test [4] (setting [13]), in test [4] (setting [14]), in test [5] (setting [15]), in test [5] (setting [16]) and in test [6] (setting [17]) was > 100 µM throughout.
For the compound `O=C(Nc1ccc(Sc2nc3ccccc3s2)cc1)c1cc(Br)cc(Br)c1O` [Compound 5, N-(4-(Benzo[d]thiazol-2-ylthio)phenyl)-3,5-dibromo-2-hydroxybenzamide], the EC50 in test [1] (setting [18]) was 0.88 µM; in test [1] (setting [19]), 0.891 µM; in test [2] (setting [20]), > 100 µM; in test [2] (setting [21]), > 100 µM; in test [3] (setting [22]), > 100 µM; in test [3] (setting [23]) it was > 100 µM. In addition, the EC50 in test [4] (setting [24]) is > 100 µM; in test [4] (setting [25]), > 100 µM; in test [5] (setting [26]) it was 0.44 µM; in test [5] (setting [27]) it was 0.44 µM; in test [5] (setting [28]), 0.437 µM; in test [6] (setting [29]), 0.52 µM. Moreover, the EC50 in test [6] (setting [30]) is 0.525 µM.
With `O=C(Nc1ccc(Sc2nc3ccccc3s2)c(Cl)c1)c1cccc(Br)c1` [Compound 18, N-(4-(Benzo[d]thiazol-2-ylthio)-3-chlorophenyl)-3-bromobenzamide], the EC50 in test [1] (setting [7]), in test [1] (setting [8]), in test [2] (setting [9]), in test [2] (setting [10]), in test [3] (setting [11]) and in test [3] (setting [12]) was > 100 µM in each case. For the same compound, the EC50 in test [4] (setting [13]), in test [4] (setting [14]), in test [5] (setting [15]), in test [5] (setting [16]) and in test [6] (setting [17]) was > 100 µM each time.
`COc1c(Br)cccc1C(=O)Nc1ccccc1` [Compound 42, 3-Bromo-2-methoxy-N-phenylbenzamide]: the EC50 in test [1] (setting [7]), in test [1] (setting [8]), in test [2] (setting [9]), in test [2] (setting [10]), in test [3] (setting [11]) and in test [3] (setting [12]) was > 100 µM each time. Moreover, the EC50 in test [4] (setting [13]), in test [4] (setting [14]), in test [5] (setting [15]), in test [5] (setting [16]) and in test [6] (setting [17]) was > 100 µM each time.
For `COc1ccccc1C(=O)Nc1ccc(Sc2nc3ccccc3s2)cc1` [Compound 36, N-(4-(Benzo[d]thiazol-2-ylthio)phenyl)-2-methoxybenzamide], the EC50 in test [1] (setting [7]), in test [1] (setting [8]), in test [2] (setting [9]), in test [2] (setting [10]), in test [3] (setting [11]) and in test [3] (setting [12]) was > 100 µM throughout. Also, the EC50 in test [4] (setting [13]), in test [4] (setting [14]), in test [5] (setting [15]), in test [5] (setting [16]) and in test [6] (setting [17]) was > 100 µM each time.
`O=C(Nc1cccc(Cl)c1)c1ccccc1` [Compound 25, N-(3-Chlorophenyl)benzamide]: the EC50 in test [1] (setting [7]), in test [1] (setting [8]), in test [2] (setting [9]), in test [2] (setting [10]), in test [3] (setting [11]) and in test [3] (setting [12]) was > 100 µM throughout. Besides, the EC50 in test [4] (setting [13]), in test [4] (setting [14]), in test [5] (setting [15]), in test [5] (setting [16]) and in test [6] (setting [17]) was > 100 µM in each case.
For `O=C(Nc1cccc(Cl)c1)c1cc(Br)cc(Br)c1O` [Compound 9, 3,5-Dibromo-N-(3-chlorophenyl)-2-hydroxybenzamide], the EC50 is 73 µM in test [1] (setting [18]); 72.4 µM in test [1] (setting [19]); > 100 µM in test [2] (setting [20]); > 100 µM in test [2] (setting [21]); 95 µM in test [3] (setting [22]); 95.5 µM in test [3] (setting [23]). The EC50 in test [4] (setting [24]) was 78 µM; in test [4] (setting [25]), 77.6 µM; in test [5] (setting [26]), 0.66 µM; in test [5] (setting [28]), 0.661 µM; in test [6] (setting [29]) it was 1.1 µM; in test [6] (setting [30]) it was 1.1 µM.
Take `COc1c(Br)cccc1C(=O)Nc1cccc(Cl)c1` [Compound 38]: the EC50 in test [1] (setting [7]), in test [1] (setting [8]), in test [2] (setting [9]), in test [2] (setting [10]), in test [3] (setting [11]) and in test [3] (setting [12]) was > 100 µM in each case. Besides, the EC50 in test [4] (setting [13]), in test [4] (setting [14]), in test [5] (setting [15]), in test [5] (setting [16]) and in test [6] (setting [17]) was > 100 µM in each case.
On to `O=C(Nc1ccc(Sc2nc3ccccc3s2)c(Cl)c1)c1cc(Br)cc(Br)c1O` [Compound 1, N-(4-(Benzo[d]thiazol-2-ylthio)-3-chlorophenyl)-3,5-dibromo-2-hydroxybenzamide], for which the EC50 in test [1] (setting [18]) is 0.52 µM; in test [1] (setting [19]), 0.513 µM; in test [2] (setting [20]), > 100 µM; in test [2] (setting [21]), > 100 µM; in test [3] (setting [22]), > 100 µM; in test [3] (setting [23]), > 100 µM. Also, the EC50 was > 100 µM in test [4] (setting [24]); > 100 µM in test [4] (setting [25]); 0.36 µM in test [5] (setting [26]); 0.36 µM in test [5] (setting [27]); 0.363 µM in test [5] (setting [28]); 0.55 µM in test [6] (setting [29]). In addition, in test [6] (setting [30]), the EC50 was 0.55 µM.
